The values below come from article PMC5623046, “A Simple PB/LIE Free Energy Function Accurately Predicts the Peptide Binding Specificity of the Tiam1 PDZ Domain” (Frontiers in Molecular Biosciences, 2017).

Several values for one entry are separate records, joined by “and”; a condition that tells them apart may be missing. Equal entries are not always repeated. Marks after values point to notes of the source that are not given here.

Chain of Tiam1 PDZ (Q13009 842-911): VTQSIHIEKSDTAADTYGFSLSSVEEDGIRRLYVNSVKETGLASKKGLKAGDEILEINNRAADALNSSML
Chain of Syndecan-1 (Sdc1) peptide (Homo sapiens) (P18827 23-310): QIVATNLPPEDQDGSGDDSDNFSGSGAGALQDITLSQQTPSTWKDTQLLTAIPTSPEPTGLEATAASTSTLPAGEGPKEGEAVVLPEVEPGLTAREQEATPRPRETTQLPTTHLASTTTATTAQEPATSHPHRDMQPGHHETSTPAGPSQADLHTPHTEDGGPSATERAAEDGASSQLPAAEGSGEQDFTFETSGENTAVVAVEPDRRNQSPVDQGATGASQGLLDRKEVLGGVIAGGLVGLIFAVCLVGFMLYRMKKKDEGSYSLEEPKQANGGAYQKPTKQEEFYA

The target of the first experiment is T1, wildtype Tiam1 PDZ domain (WT) (Homo sapiens, UniProt Q13009).
T1 construct: The Tiam1 PDZ domain was purified by nickel-chelate (GE-Healthcare) and size-exclusion chromatography; His6 (N, cleaved yes); made in house; host or cells: Escherichia coli BL21(DE3)
T1 sequence (Q13009 841-930 limits assumed): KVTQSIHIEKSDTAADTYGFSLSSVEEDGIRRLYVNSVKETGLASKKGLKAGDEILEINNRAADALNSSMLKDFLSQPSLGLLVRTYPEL
The experiment in a line: Fluorescence anisotropy binding of dansylated peptides. Conditions: relative to WT:Sdc1, this work, dansylated peptide 5–10 μM, 20 mM sodium phosphate, 50 mM NaCl, pH 6.8, 25°C, triplicate. On the procedure:
Typically, E. coli cells were grown at 37°C in Luria-Bertani (LB) medium supplemented with ampicillin (100 μg/mL) under vigorous agitation until an A600 of 0.6–0.8 was reached. Cultures were subsequently cooled to 18°C and protein expression was induced by the addition of isopropyl 1-thio-β-d-galactopyranoside (IPTG) to 1 mM final concentration. Induced cells were incubated for an additional 16–18 h at 18°C and harvested by centrifugation. The Tiam1 PDZ domain was purified by nickel-chelate (GE-Healthcare) and size-exclusion chromatography (Shepherd et al., [2010]). […] Undigested protein, cleaved His6 tag and His-tagged rTEV were separated from Tiam1 PDZ domain by nickel-chelate chromatography. The final yield was 20 mg of PDZ protein (>98% pure as judged by SDS-PAGE) from 1 L of culture. Samples were used immediately or lyophilized and stored at […].
All peptides were chemically synthesized by GenScript Inc. (Piscataway, NJ) and judged to be >95% pure based on analytical HPLC and mass spectrometry. Peptides were dansylated at their N-terminus. Peptide concentrations were determined by absorbance measurements (A280) using their predicted extinction coefficient. The peptides used in this study were Syndecan1 (Sdc1) point mutants and double mutants: Sdc1 (residues 303–310 of the full Syndecan protein: TKQEEFYACOOH), Sdc1-A0M (residues 303–310: TKQEEFYMCOOH), Sdc1-F2R (residues 303–310: TKQEERYACOOH), Sdc1-F2R/A0M (residues 303–310: TKQEERYMCOOH), Sdc1-F2A (residues 303–310: TKQEEAYACOOH), Sdc1-F2N (residues 303-310: TKQEENYACOOH), Sdc1-F2I (residues 303–310: TKQEEIYACOOH), Sdc1-E4L (residues 303–310: TKQLEFYACOOH), Sdc1-E3D/Y1T (residues 303–310: TKQEDFTACOOH), and Sdc1-E3T/Y1K (residues 303–310: TKQETFKACOOH). Notice that here and below, for the Sdc1 and other peptides, we number residue positions counting backwards from the peptide C-terminus (position 0). Thus, Sdc1-F2R is mutated at the third position from the C-terminus, which is usually called “position −2” (Shepherd and Fuentes, [2011]). We drop the negative sign to keep the notation simple.
Fluorescence anisotropy was used to monitor the binding of Tiam1 PDZ domain proteins to dansylated peptides. Anisotropy measurements were carried out on a Fluorolog3 (Jobin Yvon, Horiba, NJ) spectrofluorimeter (γex = 340 and γem = 550 nm). All data collection, fitting, and thermodynamic analyses were performed as previously described (Shepherd et al., [2011]). Binding experiments were conducted in 1.3 mL of binding buffer (20 mM sodium phosphate, 50 mM NaCl and pH 6.8) containing peptide at a concentration of 5–10 μM. Measurements were made in a 2 mL quartz cuvette that was stirred and maintained at constant 25°C temperature. The slit widths for the control of excitation and emission intensity were adjusted to the signal-to-noise ratio and maximum intensity and set in the range of 6–9 nm. A ratio of 1:100 and 1:10 dilutions of the stock PDZ protein solution (~1 mM) were prepared in binding buffer. For each experiment, 20–30 individual titration steps were performed until the sample had little or no change in anisotropy. The change in fluorescence anisotropy was plotted against protein concentration and fit to a standard hyperbolic ligand-binding curve. Each titration was carried out in triplicate.
In general terms: In fluorescence polarisation assays a small probe gives low polarisation when free and higher when bound to something large.
As to “TKQEDFTACOOH [Sdc1.E3D, Y1T, Sdc1 double mutant]”, the “Exp. relative binding free energy ΔΔG” value is reported as 0.87^e kcal/mol. With “TKQEEAYACOOH [Sdc1-F2A, Sdc1 point mutant, Ala at position 2]”, the “Exp. relative binding free energy ΔΔG” value was no less than 1.32 kcal/mol. Take “TKQEEFYMCOOH [Sdc1.A0M, Sdc1 point mutant, Met at position 0]”: the “Exp. relative binding free energy ΔΔG” value is 1.56^d kcal/mol and 1.56 kcal/mol. Take “TKQEEIYACOOH [Sdc1.F2I, Sdc1 point mutant, Ile at position 2]”: the “Exp. relative binding free energy ΔΔG” value is 0.80^e kcal/mol and 0.80 kcal/mol.

Consider “TKQEENYACOOH [Sdc1-F2N, Sdc1 point mutant, Asn at position 2]”, for which the “Exp. relative binding free energy ΔΔG” value is no less than 1.32 kcal/mol. For the substance “TKQEERYACOOH [Sdc1-F2R, Sdc1 point mutant, Arg at position 2]”, the “Exp. relative binding free energy ΔΔG” value is on record as no less than 1.32 kcal/mol.

As for “TKQETFKACOOH [Sdc1.E3T, Y1K, Sdc1 double mutant]”, the “Exp. relative binding free energy ΔΔG” value is listed as 1.33^e kcal/mol.

Turning to “TKQLEFYACOOH [Sdc1.E4L, Sdc1 point mutant, Leu at position 4]”, the “Exp. relative binding free energy ΔΔG” value is given as 0.56^e kcal/mol.

The same experiment, now with this note: relative to WT:Sdc1, this work, dansylated peptide 5–10 μM, 20 mM sodium phosphate, 50 mM NaCl, pH 6.8, 25°C, triplicate, listed as Sdc1-E3T,Y1K.
For the substance “TKQETFKACOOH [Sdc1.E3T, Y1K, Sdc1 double mutant]”, the “Exp. relative binding free energy ΔΔG” value came to 1.33 kcal/mol.

The experiment is the same for the next values; noted with them: this work.
Consider “TKQEERYACOOH [Sdc1-F2R, Sdc1 point mutant, Arg at position 2]”, for which the “affinity for WT (in words)” value is “does not have a detectable affinity”.

A further experiment deals with Tiam1 PDZ domain L915F.
Test: not given
Conditions: relative to WT:Sdc1; ref Shepherd et al., [2011]; Liu et al., [2013]; cited from earlier work. From the text: (§1) Table 1 Tiam1-PDZ:peptide complexes and free energies used for model fitting. | column: Exp.^a
Regarding “ENQKEYFF [Caspr4, peptide corresponding to the C-terminus of Caspr4]”, the “Exp. relative binding free energy ΔΔG” value is listed as 0.48 kcal/mol.

For the substance “TKQEEFYACOOH [Sdc1, C-terminal peptide of Syndecan1, residues 303–310]”, the “Exp. relative binding free energy ΔΔG” value is 0.65 kcal/mol.

A further experiment has as its system Tiam1 PDZ domain K912E.
Test: not given
Conditions: relative to WT:Sdc1; ref Shepherd et al., [2011]; Liu et al., [2013]; cited from earlier work.
Excerpt: as §1
For “ENQKEYFF [Caspr4, peptide corresponding to the C-terminus of Caspr4]”, the “Exp. relative binding free energy ΔΔG” value is reported as 0.46 kcal/mol. For the substance “TKQEEFYACOOH [Sdc1, C-terminal peptide of Syndecan1, residues 303–310]”, the “Exp. relative binding free energy ΔΔG” value is on record as 0.97 kcal/mol.

The subject of another experiment is Tiam1 PDZ domain L911M.
Test: not given
Conditions: relative to WT:Sdc1; ref Shepherd et al., [2011]; Liu et al., [2013]; cited from earlier work.
Excerpt: as §1
For “ENQKEYFF [Caspr4, peptide corresponding to the C-terminus of Caspr4]”, the “Exp. relative binding free energy ΔΔG” value was -0.39 kcal/mol. As to “TKQEEFYACOOH [Sdc1, C-terminal peptide of Syndecan1, residues 303–310]”, the “Exp. relative binding free energy ΔΔG” value is 0.15 kcal/mol.

The test system of the next experiment is Tiam1 PDZ domain L911M,K912E.
Test: not given
Conditions: relative to WT:Sdc1; ref Shepherd et al., [2011]; Liu et al., [2013]; cited from earlier work. The text has this:
(§2) Table 1 Tiam1-PDZ:peptide complexes and free energies used for model fitting. | column: Exp.^a || Table 2 Tiam1-PDZ:peptide complexes and free energies not used for model fitting. | column: Exp.^a
For “ENQKEYFF [Caspr4, peptide corresponding to the C-terminus of Caspr4]”, the “Exp. relative binding free energy ΔΔG” value is 0.04 kcal/mol. Regarding “NKDKEYYV [Neur, peptide corresponding to the C-terminus of Neurexin]”, the “Exp. relative binding free energy ΔΔG” value is reported as 1.25 kcal/mol. For the substance “TKQEEFYACOOH [Sdc1, C-terminal peptide of Syndecan1, residues 303–310]”, the “Exp. relative binding free energy ΔΔG” value is reported as 1.21 kcal/mol.

A further experiment has as its system Tiam1 PDZ domain quadruple mutant (QM).
Test: not given
Conditions: relative to WT:Sdc1; ref Shepherd et al., [2011]; Liu et al., [2013]; cited from earlier work.
Excerpt: as §2
Turning to “ENQKEYFF [Caspr4, peptide corresponding to the C-terminus of Caspr4]”, the “Exp. relative binding free energy ΔΔG” value was -0.23 kcal/mol. Turning to “NKDKEYYV [Neur, peptide corresponding to the C-terminus of Neurexin]”, the “Exp. relative binding free energy ΔΔG” value was 0.32 kcal/mol. For “TKQEEFYACOOH [Sdc1, C-terminal peptide of Syndecan1, residues 303–310]”, the “Exp. relative binding free energy ΔΔG” value is recorded as 0.89 kcal/mol.

A further experiment deals with Tiam1 PDZ domain L915F,L920V.
Test: not given
Conditions: relative to WT:Sdc1; ref Shepherd et al., [2011]; Liu et al., [2013]; cited from earlier work.
Excerpt: as §2
Take “ENQKEYFF [Caspr4, peptide corresponding to the C-terminus of Caspr4]”: the “Exp. relative binding free energy ΔΔG” value is 0.62 kcal/mol. Turning to “NKDKEYYV [Neur, peptide corresponding to the C-terminus of Neurexin]”, the “Exp. relative binding free energy ΔΔG” value was 1.08 kcal/mol. “TKQEEFYACOOH [Sdc1, C-terminal peptide of Syndecan1, residues 303–310]”: the “Exp. relative binding free energy ΔΔG” value is given as 1.32 kcal/mol.

The next experiment addresses T1, wildtype Tiam1 PDZ domain (WT).
Test: not given
Conditions: relative to WT:Sdc1; ref Shepherd et al., [2011]; Liu et al., [2013]; cited from earlier work. The text has this: Table 1 Tiam1-PDZ:peptide complexes and free energies used for model fitting. | column: Exp.^a || Table 2 Tiam1-PDZ:peptide complexes and free energies not used for model fitting. | column: Exp.^a || Table 4 Alchemical free energy simulation (FEP) results. | column: Exp. || (+ 3 further places)
Regarding “ENQKEYFF [Caspr4, peptide corresponding to the C-terminus of Caspr4]”, the “Exp. relative binding free energy ΔΔG” value was -0.21 kcal/mol. For SSRKEYYA [Consensus], the “Exp. relative binding free energy ΔΔG” value is reported as 0.84 kcal/mol. Regarding “TKQEEFYACOOH [Sdc1, C-terminal peptide of Syndecan1, residues 303–310]”, the “Exp. relative binding free energy ΔΔG” value was 0.00 kcal/mol.

“YAAEKYWA [peptide from a combinatorial library]”: the “Exp. relative binding free energy ΔΔG” value is on record as 0.72 kcal/mol. For YAAGRKHF, the “Exp. relative binding free energy ΔΔG” value is ≥ 1.32^g kcal/mol. In the case of “YAAKAFRF [peptide from a combinatorial library]”, the “Exp. relative binding free energy ΔΔG” value is 1.17 kcal/mol. With YAAKRTYV, the “Exp. relative binding free energy ΔΔG” value was ≥ 1.32^g kcal/mol. For the substance YAALIHKF, the “Exp. relative binding free energy ΔΔG” value is ≥ 1.32^g kcal/mol. As for YAAQKHFH, the “Exp. relative binding free energy ΔΔG” value is on record as ≥ 1.32^g kcal/mol.

Turning to YAARKFAK, the “Exp. relative binding free energy ΔΔG” value was ≥ 1.32^g kcal/mol. YAAYRYRA: the “Exp. relative binding free energy ΔΔG” value is on record as ≥ 1.32^g kcal/mol.

The test system of the next experiment is Tiam1 PDZ domain L920V.
Test: not given
Conditions: relative to WT:Sdc1; ref Shepherd et al., [2011]; Liu et al., [2013]; cited from earlier work. The text has this: Table 1 Tiam1-PDZ:peptide complexes and free energies used for model fitting. | column: Exp.^a || Tables 1, 2 list the 44 peptide and protein variants for which experimental binding data are available along with the corresponding binding free energy differences (ΔΔG) relative to the wildtype:Sdc1 complex (WT:Sdc1), taken as a reference. Notice that positions within each peptide ligand are numbered backwards from the C-terminus (“position 0”). For two complexes, experimental measurements were not available and ΔΔG was obtained in this work using rigorous alchemical free energy simulations (see below). Seventeen of the complexes involve Tiam1 mutations at one or more of four positions. These ...
Regarding “ENQKEYFF [Caspr4, peptide corresponding to the C-terminus of Caspr4]”, the “Exp. relative binding free energy ΔΔG” value was -0.54 kcal/mol. With “TKQEEFYACOOH [Sdc1, C-terminal peptide of Syndecan1, residues 303–310]”, the “Exp. relative binding free energy ΔΔG” value was 0.31 kcal/mol.

Still in this experiment, the particulars now being: strongest binding in the dataset; ref Shepherd et al., [2011]; Liu et al., [2013]; cited from earlier work.
For “ENQKEYFF [Caspr4, peptide corresponding to the C-terminus of Caspr4]”, the Kd – broadly, the free concentration of one partner at which half of the binding sites on the other are occupied at equilibrium, for simple one-to-one binding – is 10.8 µM.

Another experiment concerns the target Syndecan-1 (Sdc1) peptide (Homo sapiens) (UniProt P18827).
Test: not given
Conditions: cited from earlier work.
Consider Tiam1 PDZ (from UniProt Q13009), for which the Kd was 26.9 µM.
